Results from patent US20250352675A1, “CA-IX TARGETING FLUORESCENT PROBES” (BRACCO IMAGING S.P.A., priority 2022, published 2025).

Tests used:
[1] = Optical characterization (excitation/emission maxima, molar extinction coefficient); format: physicochemical
Procedure: A dual-beam UV-VIS spectrophotometer (Lambda 40, Perkin Elmer) was used to determine the absorbance (Abs) of the compounds of the invention. Emission/excitation (Em/Ex) spectra were carried out on a spectrofluorometer (FluoroLog-3 1IHR-320, Horiba Jobin Yvon) equipped with an F-3018 integrating sphere accessory. The measurements were performed using an excitation wavelength at maximum absorbance of different dyes, and the sample was excited with a 450W Xenon Light Source. Detection was performed by photomultiplier tubes (PMT-NIR) cooled detector or by TBX-04 detector. Dye solutions were carefully prepared to have an absorbance lower than 0.1 (optical densities) to minimize re-absorption phenomena.
The compounds of the invention were characterized in terms of their optical properties in vitro in aqueous medium (i.e., water/PBS pH 7.4) and in a clinical chemistry control serum (Seronorm, Sero S A), mimicking the chemical composition and optical properties of human serum. All solutions were freshly prepared. In particular, the compounds of the invention are characterized by absorption maxima comprised in the range from about 750 nm to 780 nm.
The excitation and emission maxima in PBS and Seronorm and the molar extinction coefficient (E) in water of representative compounds of formula (I) are shown in Table I in comparison with the known CA-IX targeting fluorescent probe named Hypoxyfluor-1 (HF-1, for instance disclosed in Bioconjugate Chem 2018, 29, 3320-3331). […] Moreover, the extinction coefficients were higher than […] for all compounds.

[2] = tested on: HT-29 colorectal tumor; assay: In vivo optical imaging of HT-29 tumor bearing mice (tumor-to-background ratio); settings: 1 nmol/mouse intravenous, 24 hours after administration; tumor vs hind limb muscle
Procedure: HT-29 cells were collected and washed once with serum-free medium. Five million HT-29 cells were suspended in 0.1 mL serum-free medium and injected subcutaneously in the right flank of 5 weeks old mice. Tumor development was followed by caliper measurement twice a week, from 7 days after inoculation. Tumor volume was calculated according to the formula: (L*W2)/2, where L and W are the maximum length and width of the tumor.
Optical Imaging experiments on HT-29 tumor bearing animals were performed after administration of HF-1, as reference compound, and compounds 1, 2 and 3, all at a dose of 1 nmol/mouse in an administration volume of 0.1 mL (corresponding to about 5 mL/kg, considering a 20 g-mouse) at an injection rate of about 1 mL/min, by the IVIS Spectrum system when the tumor reached at least 200 mm^3 volume.
For each group, in vivo OI experiments were performed at 0.5, 1, 2, 3, 4, 6 and 24 hours after intravenous administration of the fluorescent compounds. During imaging experiments animals were maintained under gaseous anesthesia. Regions of interest (ROIs) were drawn on the tumor and on a reference background healthy region (hind limb muscle) of the mouse for each fluorescence image at every time point to evaluate signal intensity in the tissues (expressed as Average Radiant Efficiency). The ratio between the fluorescence signal in the tumor and in the background healthy tissue (tumor-to-background ratio, TBR) was then calculated to assess the contrast.
All the compounds of the invention and HF-1 were tested at a dose of 1 nmol/mouse.

SMILES	Max Em ([1]; PBS pH 7.4)	Max Ex ([1]; PBS pH 7.4)	Max Em ([1]; Seronorm)	Max Ex ([1]; Seronorm)	in vivo TBR (mean ± SD) [2]
CC1(C)C(/C=C/C=C/C=C/C=C2/N(CCCCS(=O)(=O)O)c3ccc(C(=O)NC[C@H](O)[C@@H](O)[C@H](O)[C@H](O)CO)cc3C2(C)C)=[N+](CCCCS(=O)(=O)[O-])c2ccc(C(=O)NCCCCCCCC(=O)Nc3nnc(S(N)(=O)=O)s3)cc21 [Compound 1]	783 nm	752 nm	791 nm	768 nm	5.9 ± 1.2
CC1(C)C(/C=C/C2=C(Oc3ccc(S(=O)(=O)O)cc3)C(=C/C=C3/N(CCCCS(=O)(=O)O)c4ccc(S(=O)(=O)O)cc4C3(C)C)/CCC2)=[N+](CCCCS(=O)(=O)[O-])c2ccc(C(=O)NCCCCCCCC(=O)Nc3nnc(S(N)(=O)=O)s3)cc21 [Compound 3]	802 nm	776 nm	810 nm	792 nm	2.2 ± 0.6
CC1(C)C(/C=C/C=C/C=C/C=C2/N(CCCCS(=O)(=O)O)c3ccc(S(=O)(=O)O)cc3C2(C)C)=[N+](CCCCS(=O)(=O)[O-])c2ccc(C(=O)NCCCCCCCC(=O)Nc3nnc(S(N)(=O)=O)s3)cc21 [Compound 2]	784 nm	754 nm	788 nm	768 nm	5.1 ± 1.9
